# Reference: patent US6071954A, “(methylsulfonyl)phenyl-2-(5H)-furanones with oxygen link as COX-2 inhibitors” (Merk Frosst Canada, Inc., priority 1998, dated 2000)
# Columns and labels:
# [1] = molecular target: T1, COX-2 (Homo sapiens, UniProt P35354); assay: Whole cell assay for COX-2 using CHO transfected cell lines (CHO[hCOX-2]); assay type: cell-based; parameters: expressed in transfected cells; CHO[hCOX-2]; settings: CHO[hCOX-2] cells, PGE2 synthesis in response to arachidonic acid
# T1 sequence (P35354 18-604): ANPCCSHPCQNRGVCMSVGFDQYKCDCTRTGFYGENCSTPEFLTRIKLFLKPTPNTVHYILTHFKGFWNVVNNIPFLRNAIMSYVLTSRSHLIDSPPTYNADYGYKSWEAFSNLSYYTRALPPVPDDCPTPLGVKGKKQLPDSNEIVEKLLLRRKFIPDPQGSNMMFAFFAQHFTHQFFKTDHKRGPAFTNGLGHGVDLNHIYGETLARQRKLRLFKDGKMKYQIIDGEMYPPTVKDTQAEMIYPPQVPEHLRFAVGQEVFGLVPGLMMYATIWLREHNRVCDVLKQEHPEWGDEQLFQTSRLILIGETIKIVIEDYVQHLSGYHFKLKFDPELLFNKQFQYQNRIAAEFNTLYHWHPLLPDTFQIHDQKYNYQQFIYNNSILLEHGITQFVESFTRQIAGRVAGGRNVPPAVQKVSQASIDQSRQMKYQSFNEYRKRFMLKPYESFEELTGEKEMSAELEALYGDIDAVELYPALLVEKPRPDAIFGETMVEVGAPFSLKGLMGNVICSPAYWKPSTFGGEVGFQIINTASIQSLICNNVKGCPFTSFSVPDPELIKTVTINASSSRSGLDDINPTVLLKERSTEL
# Method: Compounds are tested as inhibitors of cyclooxygenase activity in whole cell cyclooxygenase assays. These assays measure prostaglandin E2 synthesis in response to arachidonic acid, using a radioimmunoassay. Cells used for these assays are chinese hamster ovary (CHO) cell lines which have been stably transfected with an eukaryotic expression vector […] containing either the human Cox-1 or Cox-2 CDNA's. U937 cell microsomes are also used to measure Cox-1 activity.
# Chinese hamster ovary (CHO) cell lines which have been stably transfected with an eukaryotic expression vector pCDNAIII containing either the human COX-1 or COX-2 cDNA's are used for the assay. These cell lines are referred to as CHO [hCOX-1] and CHO [hCOX-2], respectively. […] Drugs to be tested are dissolved in DMSO to 66.7-fold the highest test drug concentration. […] Cells (0.3×10^6 cells in 200 μl) are preincubated with 3 μl of the test drug or DMSO vehicle for 15 min at 37° C.
# In the assay, inhibition is determined by measuring the amount of prostaglandin E2 (PGE2) synthesized in the presence of arachidonic acid, cyclooxygenase-1 or cyclooxygenase-2 and a putative inhibitor.
# [2] = molecular target: T1, COX-2; assay: Human whole blood assay, COX-2 (LPS-induced PGE2 production); assay type: cell-based; parameters: incubation of human whole blood with LPS, which induces COX-2; endogenous in cells; host or cells: fresh heparinized whole blood of human volunteers, LPS-stimulated; settings: LPS-induced PGE2, 24 hours at 37° C, read-out: COX-2 (IC50) HWB
# Description: As well, platelets in whole blood contain a large amount of the COX-1 enzyme. Immediately following blood clotting, platelets are activated through a thrombin-mediated mechanism. This reaction results in the production of thromboxane B2 (TxB2) via activation of COX-1. Thus, the effect of test compounds on TxB2 levels following blood clotting can be examined and used as an index for COX-1 activity. Therefore, the degree of selectivity by the test compound can be determined by measuring the levels of PGE2 after LPS induction (COX-2) and TxB2 following blood clotting (COX-1) in the same assay. A. COX-2 (LPS-induced PGE2 production) Fresh blood is collected in heparinized tubes by venipuncture from both male and female volunteers. The subjects have no apparent inflammatory conditions and have not taken any NSAIDs for at least 7 days prior to blood collection. Plasma is immediately obtained from a 2 mL blood aliquot to use as blank (basal levels of PGE2). […] The supernatant is obtained and is assayed for PGE2 using a radioimmunoassay kit (Amersham, RPA#530) after conversion of PGE2 to its methyl oximate derivative according to the manufacturer's procedure.
# [3] = system: Rat Paw Edema; assay: Rat paw edema assay (carrageenan); assay type: in vivo, rat (male Sprague-Dawley); settings: po, 1 hr before carrageenan, paw volume 3 hr later
# Method: Male Sprague-Dawley rats (150-200 g) are fasted overnight and are given, po, either vehicle (1% methocel or 5% Tween 80) or a test compound. One hr later, a line is drawn using a permanent marker at the level above the ankle in one hind paw to define the area of the paw to be monitored. The paw volume (V0) is measured using a plethysmometer (Ugo-Basile, Italy) based on the principle of water displacement. The animals are then injected subplantarly with […] of 1% carrageenan solution in saline (FMC Corp, Maine) into the paw using an insulin syringe with a 25-gauge needle (i.e. […] carrageenan per paw). Three hr later, the paw volume (V3) is measured and the increases in paw volume (V3 -V0) are calculated. The animals are sacrificed by CO2 asphyxiation and the absence or presence of stomach lesions scored. Data is compared with the vehicle-control values and percent inhibition calculated. All treatment groups are coded to eliminate observer bias.
SMILES,IC50 [1] [nM],IC50 [2] [nM],ED50 [3] [mg/kg]
C[C@H](O)[C@@H](C)OC1=C(c2ccc(S(C)(=O)=O)cc2)C(C)(C)OC1=O (relative stereo) [Example 4],600,900,–
CC1(C)OC(=O)C(OC2CCC(F)(F)CC2)=C1c1ccc(S(C)(=O)=O)cc1 [Example 17],–,–,0.9
"CC1(C)OC(=O)C(OC(C(F)(F)F)C(F)(F)F)=C1c1ccc(S(C)(=O)=O)cc1 [Example 2, 5,5-Dimethyl-3-(1,1,1,3,3,3-hexafluoropropoxy)-4-(4-methylsulfonylphenyl)-5H-furan-2-one]",–,–,1
